Laboratory results from patent publication US10759766B2, “Certain chemical entities, compositions, and methods” (NeuPharma, Inc., priority 2011, dated 2020).

Tests used:
BRAF = BRAF (Homo sapiens (Human), UniProt P15056); assay: Z′-LYTE kinase inhibition assay (Invitrogen), BRAF; assay type: biochemical; conditions: 1 μM compound, Z′-LYTE method; for inhibition at 1 µM: read-out: % inhibition at 1 μM against BRAF
Procedure: Inhibitory activities Inhibitory activities of compounds against BRAF, and BRAF V600E were measured by Invitrogen using Z′-LYTE® Method as briefly described in the following. 4× Test compounds are dissolved in 1% DMSO. […] ATP solutions are diluted to a 4×ATP working concentration in Kinase Buffer (50 mM HEPES pH 7.5, 0.01% BRIJ-35, 10 mM MgCl2, 1 mM EGTA). Reaction started by 30-second shaking of mixture consisting of 2.5 μL 4× test compound, […] and 2.5 μL 4×ATP Solution on Bar-coded Corning, low volume NBS, black 384-well plate (Corning Cat. #3676). Then the mixture was incubated for 60-minute at room temperature for the kinase reaction, followed by addition of 5 μL of a 1:1024 dilution of development reagent A and 30-second plate shake. The mixture was then incubated for another 60-minute at room temperature for development reaction. Fluorescence was read by plate reader. IC50 was calculated by plotting the concentration of compound vs the percentage of inhibition in treated wells using GraphPad Prism 5.

BRAF V600E = BRAF V600E (Homo sapiens (Human), UniProt P15056, V600E); assay: Z′-LYTE kinase inhibition assay (Invitrogen), BRAF V600E; assay type: biochemical; conditions: Z′-LYTE method; for inhibition at 1 µM: read-out: % inhibition at 1 μM against BRAF V600E; for IC50: read-out: IC50 against BRAF V600E
Sequence of BRAF V600E (P15056 whole entry V600E): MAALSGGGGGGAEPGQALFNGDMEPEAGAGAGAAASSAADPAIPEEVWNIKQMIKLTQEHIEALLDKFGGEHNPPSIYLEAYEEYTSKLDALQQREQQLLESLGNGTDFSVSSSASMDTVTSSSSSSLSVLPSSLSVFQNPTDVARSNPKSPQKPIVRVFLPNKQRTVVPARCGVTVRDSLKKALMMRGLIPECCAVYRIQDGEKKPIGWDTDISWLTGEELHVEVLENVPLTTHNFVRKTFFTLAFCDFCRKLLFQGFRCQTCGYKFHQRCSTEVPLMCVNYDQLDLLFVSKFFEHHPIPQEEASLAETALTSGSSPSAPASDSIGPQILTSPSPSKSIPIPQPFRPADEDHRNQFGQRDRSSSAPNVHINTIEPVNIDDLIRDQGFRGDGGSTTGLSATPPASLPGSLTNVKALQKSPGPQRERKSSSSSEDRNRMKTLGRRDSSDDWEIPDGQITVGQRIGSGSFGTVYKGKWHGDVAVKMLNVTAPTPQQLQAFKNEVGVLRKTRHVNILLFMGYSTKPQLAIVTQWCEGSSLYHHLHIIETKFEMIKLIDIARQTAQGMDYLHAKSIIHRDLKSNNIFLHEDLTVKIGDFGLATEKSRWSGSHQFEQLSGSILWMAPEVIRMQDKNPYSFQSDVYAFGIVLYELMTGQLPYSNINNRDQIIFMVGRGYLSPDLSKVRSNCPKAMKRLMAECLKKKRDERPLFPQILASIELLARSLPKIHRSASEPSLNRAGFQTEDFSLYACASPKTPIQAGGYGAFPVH
Method in brief: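 FRET-based Z′-LYTE peptide phosphorylation format in 50 mM HEPES pH 7.5, 0.01% BRIJ-35, 10 mM MgCl2, 1 mM EGTA with ATP. Kinase reaction 60 min at room temperature, then protease development step 60 min at room temperature before fluorescence read. IC50 from compound concentration versus percent inhibition.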

KDR (VEGFR2) = KDR (VEGFR2) (Homo sapiens (Human), UniProt P35968); assay: Z′-LYTE kinase inhibition assay (Invitrogen), KDR; assay type: biochemical; conditions: Z′-LYTE method; for inhibition at 1 µM: read-out: % inhibition at 1 μM against KDR; for IC50: read-out: IC50 against KDR
Sequence of KDR (VEGFR2) (P35968 20-1356): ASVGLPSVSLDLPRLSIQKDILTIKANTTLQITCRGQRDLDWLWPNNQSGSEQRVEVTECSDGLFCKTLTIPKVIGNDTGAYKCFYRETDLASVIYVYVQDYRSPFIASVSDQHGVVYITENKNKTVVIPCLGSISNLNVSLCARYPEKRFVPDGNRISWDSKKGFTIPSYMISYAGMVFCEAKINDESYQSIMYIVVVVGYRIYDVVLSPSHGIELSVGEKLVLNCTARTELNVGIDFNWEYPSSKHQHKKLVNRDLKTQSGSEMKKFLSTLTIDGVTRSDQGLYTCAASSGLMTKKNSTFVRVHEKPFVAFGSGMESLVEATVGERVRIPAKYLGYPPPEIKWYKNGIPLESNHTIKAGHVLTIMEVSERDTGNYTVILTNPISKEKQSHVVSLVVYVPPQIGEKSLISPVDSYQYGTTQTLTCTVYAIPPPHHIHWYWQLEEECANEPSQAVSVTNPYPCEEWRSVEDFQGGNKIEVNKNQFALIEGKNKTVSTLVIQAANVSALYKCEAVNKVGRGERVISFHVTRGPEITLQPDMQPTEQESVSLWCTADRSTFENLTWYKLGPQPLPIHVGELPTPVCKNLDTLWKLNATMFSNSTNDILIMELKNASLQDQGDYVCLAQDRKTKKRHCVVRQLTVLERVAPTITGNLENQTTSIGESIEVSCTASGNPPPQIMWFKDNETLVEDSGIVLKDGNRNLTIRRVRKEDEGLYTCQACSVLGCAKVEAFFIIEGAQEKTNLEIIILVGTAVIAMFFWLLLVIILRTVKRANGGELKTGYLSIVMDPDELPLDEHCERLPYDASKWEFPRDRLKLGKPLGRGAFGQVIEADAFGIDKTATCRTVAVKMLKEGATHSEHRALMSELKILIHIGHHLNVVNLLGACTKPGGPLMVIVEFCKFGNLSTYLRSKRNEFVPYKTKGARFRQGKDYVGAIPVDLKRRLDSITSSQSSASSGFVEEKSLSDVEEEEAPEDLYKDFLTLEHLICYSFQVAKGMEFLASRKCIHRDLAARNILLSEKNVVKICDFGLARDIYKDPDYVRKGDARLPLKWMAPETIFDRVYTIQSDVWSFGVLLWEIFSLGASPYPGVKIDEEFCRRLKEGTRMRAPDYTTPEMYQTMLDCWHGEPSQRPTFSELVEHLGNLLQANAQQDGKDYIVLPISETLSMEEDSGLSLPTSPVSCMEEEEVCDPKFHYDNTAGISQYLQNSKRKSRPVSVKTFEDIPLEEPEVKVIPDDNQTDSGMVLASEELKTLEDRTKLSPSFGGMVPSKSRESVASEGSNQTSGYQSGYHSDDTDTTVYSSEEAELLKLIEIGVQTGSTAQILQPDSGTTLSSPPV
Method in brief: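 Z′-LYTE FRET assay: 10 μL reactions with 0.5–11.7 ng KDR and 2 μM Tyr 01 peptide in 50 mM HEPES pH 7.5, 10 mM MgCl2, 1 mM EGTA, 0.01% BRIJ-35, 1 h at room temperature. Development Reagent B (1:256) added for 60 min, fluorescence read; IC50 from concentration–inhibition curves.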

A549 cells = assay: Inhibition of cancer cell growth, MTT assay, A549; assay type: cell-based
Method in brief: (§1)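 IC50 derived from percent growth inhibition versus concentration, tested in triplicate. Growth inhibition came from MTT read at 570 nm after 72 h drug exposure, relative to viable cells at dosing. Cells (about 4000/well, RPMI 1640 + 10% FBS) adhered 24 h before treatment; final DMSO 1%.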

A375 cells = assay: Inhibition of cancer cell growth, MTT assay, A375; assay type: cell-based
Method in brief: as §1

[1] = Homo sapiens, A549, 72 h exposure
[2] = Homo sapiens, A-375, 72 h exposure

Sequence of BRAF (P15056 whole entry): as the sequence (P15056 whole entry V600E) above, with E600V counted along it

Question: With `O=C(Nc1ccc(F)cc1)Nc1ccc(F)c(C(=O)c2ccc3ncc(N4CCNCC4)nc3c2)c1` [Compound C100, 1-(4-fluoro-3-(3-(piperazin-1-yl)quinoxaline-6-carbonyl)phenyl)-3-(4-fluorophenyl)urea] as the molecule, how does the inhibition at 1 µM (BRAF) read?
Answer: > 89%

Question: And the inhibition at 1 µM (BRAF V600E; 1 μM compound)?
Answer: > 89%

Question: What about the inhibition at 1 µM (KDR (VEGFR2); 1 μM compound) of the same molecule?
Answer: > 89%

Question: And the IC50 (KDR (VEGFR2))?
Answer: < 100 nM

Question: And the IC50 (A549 cells; [1])?
Answer: 2000 to 5000 nM

Question: For `O=C(Nc1cccc(C(=O)c2ccc3ncc(-c4cccnc4)nc3c2)c1)c1ccc(C(F)(F)F)c(Cl)c1` [Compound C124, 3-chloro-N-(3-(3-(pyridin-3-yl)quinoxaline-6-carbonyl)phenyl)-4-(trifluoromethyl)benzamide], which inhibition at 1 µM (BRAF) is on record?
Answer: < 70%

Question: And the inhibition at 1 µM (BRAF V600E; 1 μM compound)?
Answer: > 89%

Question: And the IC50 (BRAF V600E)?
Answer: < 100 nM

Question: What about the inhibition at 1 µM (KDR (VEGFR2); 1 μM compound) of the same molecule?
Answer: > 89%

Question: And the IC50 (KDR (VEGFR2))?
Answer: < 100 nM

Question: And the IC50 (A375 cells; [2])?
Answer: > 5000 nM

Question: What about the IC50 (A549 cells; [1]) of the same molecule?
Answer: > 5000 nM

Question: For `O=C(Nc1cc(F)c(F)c(C(=O)c2ccc3ncc(N4CCOCC4)nc3c2)c1)c1cccc(C(F)(F)F)c1` [Compound C145, N-(3,4-difluoro-5-(3-morpholinoquinoxaline-6-carbonyl)phenyl)-3-(trifluoromethyl)benzamide], which inhibition at 1 µM (BRAF) is on record?
Answer: < 70%

Question: And the inhibition at 1 µM (BRAF V600E; 1 μM compound)?
Answer: > 89%

Question: And the IC50 (BRAF V600E)?
Answer: < 100 nM

Question: And the inhibition at 1 µM (KDR (VEGFR2); 1 μM compound)?
Answer: > 89%

Question: What about the IC50 (KDR (VEGFR2)) of the same molecule?
Answer: < 100 nM

Question: And the IC50 (A375 cells; [2])?
Answer: < 1000 nM

Question: And the IC50 (A549 cells; [1])?
Answer: > 5000 nM

Question: With `O=C(Nc1ccnc(C(F)(F)F)c1)Nc1ccc(F)c(C(=O)c2ccc3ncc(N4CCOCC4)nc3c2)c1` [Compound C090, 1-(4-fluoro-3-(3-morpholinoquinoxaline-6-carbonyl)phenyl)-3-(2-(trifluoromethyl)pyridin-4-yl)urea] as the molecule, how does the inhibition at 1 µM (BRAF) read?
Answer: > 89%

Question: And the inhibition at 1 µM (BRAF V600E; 1 μM compound)?
Answer: > 89%

Question: What about the inhibition at 1 µM (KDR (VEGFR2); 1 μM compound) of the same molecule?
Answer: 70 to 89%

Question: What about the IC50 (A375 cells; [2]) of the same molecule?
Answer: < 1000 nM

Question: What about the IC50 (A549 cells; [1]) of the same molecule?
Answer: > 5000 nM

Question: How did the inhibition at 1 µM (BRAF) turn out when `O=C(Nc1cc(F)c(F)c(C(=O)c2ccc3nccnc3c2)c1)Nc1ccc(Cl)c(C(F)(F)F)c1` [Compound C023, 1-(4-chloro-3-(trifluoromethyl)phenyl)-3-(3,4-difluoro-5-(quinoxaline-6-carbonyl)phenyl)urea] was run?
Answer: < 70%

Question: And the inhibition at 1 µM (BRAF V600E; 1 μM compound)?
Answer: 70 to 89%

Question: And the inhibition at 1 µM (KDR (VEGFR2); 1 μM compound)?
Answer: 70 to 89%

Question: What about the IC50 (A375 cells; [2]) of the same molecule?
Answer: < 1000 nM

Question: And the IC50 (A549 cells; [1])?
Answer: < 2000 nM

Question: For `COc1cnc2ccc(C(=O)c3cc(NC(=O)Nc4ccc(F)cc4)ccc3F)cc2n1` [Compound C080, 1-(4-fluoro-3-(3-methoxyquinoxaline-6-carbonyl)phenyl)-3-(4-fluorophenyl)urea], which inhibition at 1 µM (BRAF) is on record?
Answer: 70 to 89%

Question: And the inhibition at 1 µM (BRAF V600E; 1 μM compound)?
Answer: > 89%

Question: And the inhibition at 1 µM (KDR (VEGFR2); 1 μM compound)?
Answer: 70 to 89%

Question: What about the IC50 (KDR (VEGFR2)) of the same molecule?
Answer: < 100 nM

Question: What about the IC50 (A375 cells; [2]) of the same molecule?
Answer: 1000 to 5000 nM

Question: And the IC50 (A549 cells; [1])?
Answer: 2000 to 5000 nM

Question: For `O=C(Nc1cccc(C(F)(F)F)c1)Nc1cc(F)c(F)c(C(=O)c2ccc3ncc(N4CCOCC4)nc3c2)c1` [Compound C040, 1-(3,4-difluoro-5-(3-morpholinoquinoxaline-6-carbonyl)phenyl)-3-(3-(trifluoromethyl)phenyl)urea], which inhibition at 1 µM (BRAF) is on record?
Answer: < 70%

Question: And the inhibition at 1 µM (BRAF V600E; 1 μM compound)?
Answer: 70 to 89%

Question: And the IC50 (BRAF V600E)?
Answer: > 100 nM

Question: And the inhibition at 1 µM (KDR (VEGFR2); 1 μM compound)?
Answer: 70 to 89%

Question: And the IC50 (KDR (VEGFR2))?
Answer: > 100 nM

Question: And the IC50 (A375 cells; [2])?
Answer: < 1000 nM

Question: What about the IC50 (A549 cells; [1]) of the same molecule?
Answer: < 2000 nM

Question: Which “% inhibition at 1 μM against BRAF” value (BRAF) does the source give for “1-(fluorophenyl)-3-(2,4,5-trifluoro-3-(quinoxaline-6-carbonyl)phenyl)urea [Compound C005]” here?
Answer: + (less than 70% inhibition)

Question: What about the “% inhibition at 1 μM against BRAF V600E” value (BRAF V600E; 1 μM compound) of the same molecule?
Answer: ++ (between 70% and 89% inhibition)

Question: And the “% inhibition at 1 μM against KDR” value (KDR (VEGFR2); 1 μM compound)?
Answer: + (less than 70% inhibition)

Question: What about the IC50 (A375 cells; 72 h exposure) of the same molecule?
Answer: > 5000 nM

Question: And the IC50 (A549 cells; 72 h exposure)?
Answer: > 5000 nM

Question: Which inhibition at 1 µM (BRAF) does the source give for `O=C(Nc1cc(F)cc(C(=O)c2ccc3ncc(N4CCOCC4)nc3c2)c1)Nc1ccc(Cl)c(C(F)(F)F)c1` [Compound C031, 1-(4-chloro-3-(trifluoromethyl)phenyl)-3-(3-fluoro-5-(3-morpholinoquinoxaline-6-carbonyl)phenyl)urea] here?
Answer: < 70%

Question: And the inhibition at 1 µM (BRAF V600E; 1 μM compound)?
Answer: 70 to 89%

Question: What about the inhibition at 1 µM (KDR (VEGFR2); 1 μM compound) of the same molecule?
Answer: 70 to 89%

Question: What about the IC50 (A375 cells; [2]) of the same molecule?
Answer: < 1000 nM

Question: And the IC50 (A549 cells; [1])?
Answer: 2000 to 5000 nM

Question: Which inhibition at 1 µM (BRAF) does the source give for `O=C(Nc1cccc(C(=O)c2ccc3ncc(-c4cn[nH]c4)nc3c2)c1)Nc1ccc(Cl)c(C(F)(F)F)c1` [Compound C029, 1-(3-(3-(1H-pyrazol-4-yl)quinoxaline-6-carbonyl)phenyl)-3-(4-chloro-3-(trifluoromethyl)phenyl)urea] here?
Answer: 70 to 89%

Question: And the inhibition at 1 µM (BRAF V600E; 1 μM compound)?
Answer: > 89%

Question: What about the IC50 (BRAF V600E) of the same molecule?
Answer: < 100 nM

Question: And the inhibition at 1 µM (KDR (VEGFR2); 1 μM compound)?
Answer: > 89%

Question: And the IC50 (KDR (VEGFR2))?
Answer: < 100 nM

Question: And the IC50 (A375 cells; [2])?
Answer: 1000 to 5000 nM

Question: And the IC50 (A549 cells; [1])?
Answer: 2000 to 5000 nM
